Literature values in publication PMC7904743, “WIDOCK: a reactive docking protocol for virtual screening of covalent inhibitors” (Journal of Computer-Aided Molecular Design, 2021).
Read-outs that look alike come from different tables or passages of the source.

What was measured:
NUDT7 = conditions: protein labeling at 200 μM; experimental actives if % labeling higher than 50%; cited from earlier work
OTUB2 = conditions: experimental actives if % labeling higher than 50%, cited from earlier work
[1] = thiol reactivity, cited from earlier work
[2] = natural log of average kinetic rate constant
[3] = natural log of average rate constant
[4] = natural log of average rate constant k
[5] = natural logarithm of average rate constant

SMILES | NUDT7 % labeling (NUDT7) [%] | OTUB2 % labeling (OTUB2; OTUB2 protein labeling) [%] | ln(avg k) [1, 2] | ln(avg k) [1, 3] | OTUB2 % labeling (OTUB2) [%] | ln(avg k) [1, 4] | ln(avg k) [1, 5]
O=C(CCl)N1CC=C(c2ccccc2)CC1 [PCM-0103038, O=C(CCl)N1CC=C(c2ccccc2)CC1] | 0 | 9 | -16.846 | -16.846 |  |  | 
CC(C)(C)c1nnc(NC(=O)CCl)s1 [PCM-0102736, CC(C)(C)c1nnc(NC(=O)CCl)s1] | 0 | 0 | -15.861 | -15.861 |  |  | 
O=C(CCl)N1CCN(CC(=O)N2CCCC2)CC1 [PCM-0102346, O=C(CCl)N1CCN(CC(=O)N2CCCC2)CC1] | 0 |  |  |  | 0 | -16.189 | -16.189
Cc1ccc(S(=O)(=O)N2CCN(C(=O)CCl)CC2)cc1C [PCM-0102379, Cc1ccc(S(=O)(=O)N2CCN(C(=O)CCl)CC2)cc1C] | 10 |  |  |  | 0 | -15.076 | -15.076
COc1ccc2c(c1)CCCN2C(=O)CCl [PCM-0102325, COc1ccc2c(c1)CCCN2C(=O)CCl] | 12 |  |  |  | 0 | -15.257 | -15.257
CC(=O)c1cc2c(cc1NC(=O)CCl)OCO2 [PCM-0103010, CC(=O)c1cc2c(cc1NC(=O)CCl)OCO2] | 14 | 0 | -17.333 | -17.333 |  |  | 
Cc1noc(C)c1CNC(=O)CCl [PCM-0102780, Cc1noc(C)c1CNC(=O)CCl] | 11 | 0 | -16.766 | -16.766 |  |  | 
O=C(CCl)NNC(=O)c1ccco1 [PCM-0102985, O=C(CCl)NNC(=O)c1ccco1] | 0 | 27 | -17.545 | -17.545 |  |  | 
Cc1c(C#N)c(NC(=O)CCl)n(-c2cccc(F)c2)c1C [PCM-0102146, Cc1c(C#N)c(NC(=O)CCl)n(-c2cccc(F)c2)c1C] | 58 |  |  |  | 10 | -15.589 | -15.589
O=C(CCl)Nc1ccc(O)cc1 [PCM-0102163, O=C(CCl)Nc1ccc(O)cc1] | 0 |  |  |  | 16 | -15.989 | -15.989
CC(C)(C)N(Cc1cccc(F)c1)C(=O)CCl [PCM-0102833, CC(C)(C)N(Cc1cccc(F)c1)C(=O)CCl] | 0 | 0 | -16.964 | -16.964 |  |  | 
CCc1nc(NC(=O)CCl)sc1C [PCM-0102231, CCc1nc(NC(=O)CCl)sc1C] | 33 |  |  |  | 0 | -15.238 | -15.238
CC(NC(=O)CCl)c1ccc2ccccc2c1 (stereo not shown) [PCM-0102350, CC(NC(=O)CCl)c1ccc2ccccc2c1] | 31 |  |  |  | 47 | -16.423 | -16.423
O=C(CCl)N1CCN(CC(=O)N2CCOCC2)CC1 [PCM-0102133, O=C(CCl)N1CCN(CC(=O)N2CCOCC2)CC1] | 0 |  |  |  | 15 | -15.992 | -15.992
CC(C)N(C)C(=O)C1CCN(C(=O)CCl)CC1 [PCM-0102974, CC(C)N(C)C(=O)C1CCN(C(=O)CCl)CC1] | 0 | 0 | -15.247 | -15.247 |  |  | 
CC(C)N1CCC(NC(=O)CCl)CC1 [PCM-0102748, CC(C)N1CCC(NC(=O)CCl)CC1] | 0 | 0 | -15.792 | -15.792 |  |  | 
O=C(CCl)NC1CCCC(C(F)(F)F)C1 (stereo not shown) [PCM-0102862, O=C(CCl)NC1CCCC(C(F)(F)F)C1] | 0 | 14 | -16.578 | -16.578 |  |  | 
Cc1cccc(N(C(=O)CCl)C2C=CS(=O)(=O)C2)c1 (stereo not shown) [PCM-0102579, Cc1cccc(N(C(=O)CCl)C2C=CS(=O)(=O)C2)c1] | 40 |  |  |  | 0 | -15.240 | -15.240
O=C(CCl)NC(=O)Nc1ccccc1F [PCM-0102376, O=C(CCl)NC(=O)Nc1ccccc1F] | 0 |  |  |  | 0 | -15.900 | -15.900
CN(Cc1cc(Cl)cc(Cl)c1)C(=O)CCl [PCM-0102678, CN(Cc1cc(Cl)cc(Cl)c1)C(=O)CCl] | 45 |  |  |  | 0 | -15.789 | -15.789
Cc1cccc(C(C)C)c1NC(=O)CCl [PCM-0102358, Cc1cccc(C(C)C)c1NC(=O)CCl] | 0 |  |  |  | 0 | -16.961 | -16.961
O=C(CCl)Nc1ccc(F)cc1 [PCM-0103002, O=C(CCl)Nc1ccc(F)cc1] | 0 | 30 | -16.182 | -16.182 |  |  | 
